Consider 19 molecules from patent US12365696B2, “Small-molecule focal adhesion kinase (FAK) inhibitors” (DANA-FARBER CANCER INSTITUTE, INC., priority 2019, dated 2025).

Some results are limits rather than exact numbers.

What is called IC50 is the concentration at which inhibition is half-maximal.

The target of one test is PTK2 (FAK) (Homo sapiens (Human), UniProt Q05397). As to the kind of experiment: Z′-LYTE kinase assay (SelectScreen Biochemical Kinase Profiling), enzymatic IC50. To be noted: FAK IC50. The method, then: Enzymatic IC50 data was obtained through ThermoFisher Scientific SelectScreen™ Biochemical Kinase Profiling Service, using a Z′-LYTE™ kinase-specific assay, as described below.
PTK2 (FAK), sequence (Q05397 whole entry): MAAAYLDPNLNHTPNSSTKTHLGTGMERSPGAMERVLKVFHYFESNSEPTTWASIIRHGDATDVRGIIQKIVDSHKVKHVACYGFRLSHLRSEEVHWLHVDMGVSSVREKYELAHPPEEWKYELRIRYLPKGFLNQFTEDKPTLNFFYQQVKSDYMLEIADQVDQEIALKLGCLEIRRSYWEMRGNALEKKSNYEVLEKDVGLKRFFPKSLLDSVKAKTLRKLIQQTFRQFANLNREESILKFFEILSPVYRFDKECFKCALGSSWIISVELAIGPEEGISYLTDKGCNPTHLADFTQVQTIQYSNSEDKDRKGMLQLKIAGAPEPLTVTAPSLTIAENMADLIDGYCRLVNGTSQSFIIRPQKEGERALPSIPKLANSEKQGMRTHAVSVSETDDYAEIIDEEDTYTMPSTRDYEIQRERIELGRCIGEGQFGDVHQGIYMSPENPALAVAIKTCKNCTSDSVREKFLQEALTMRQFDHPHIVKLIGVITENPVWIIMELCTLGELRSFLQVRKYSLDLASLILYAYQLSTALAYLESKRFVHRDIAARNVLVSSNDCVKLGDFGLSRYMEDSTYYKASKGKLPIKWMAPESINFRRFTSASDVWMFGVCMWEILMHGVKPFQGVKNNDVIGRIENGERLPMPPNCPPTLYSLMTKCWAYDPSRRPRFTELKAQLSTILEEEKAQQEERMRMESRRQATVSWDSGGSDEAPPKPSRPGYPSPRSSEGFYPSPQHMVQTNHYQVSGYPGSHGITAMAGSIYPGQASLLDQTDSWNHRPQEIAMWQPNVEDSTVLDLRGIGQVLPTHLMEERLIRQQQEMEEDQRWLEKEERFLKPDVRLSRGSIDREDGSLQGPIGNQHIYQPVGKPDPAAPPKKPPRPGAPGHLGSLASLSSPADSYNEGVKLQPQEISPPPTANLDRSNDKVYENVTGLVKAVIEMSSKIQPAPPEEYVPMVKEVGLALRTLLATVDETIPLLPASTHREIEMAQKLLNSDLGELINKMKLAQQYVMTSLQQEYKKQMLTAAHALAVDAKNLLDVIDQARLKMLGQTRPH
The test compounds were screened in 1% dimethyl sulfoxide (DMSO) (final) in the well. For 10 point titrations, 3-fold serial dilutions were conducted from the starting concentration.
All peptide/kinase mixtures were diluted to a 2× working concentration in the appropriate kinase buffer (see section kinase specific assay conditions for a complete description).
All ATP solutions were diluted to a 4× working concentration in kinase buffer (50 mM 4-(2-hydroxyethyl)-1-piperazineethanesulfonic acid (HEPES) pH 7.5, 0.01% BRIJ-35, 10 mM MgCl2, 1 mM ethylene glycol-bis(β-aminoethyl ether)-N,N,N′,N′-tetraacetic acid (EGTA)). ATP Km apparent was previously determined using a Z′-LYTE assay.
The development reagent was diluted in development buffer (see section kinase-specific assay conditions—direct and cascade for a complete description).
Using a bar-coded Corning, low volume NBS, black 384-well plate (Corning Cat. #4514), 100 nL of 100× test compound in 100% DMSO was added. […] The plate was then shaken for 30 seconds and held at room temperature for a 60 minute kinase reaction incubation period. At which point 5 μL of development reagent solution was added and the plate was shaken for 30 seconds. The plate was held again at room temperature for a 60 minute development reaction incubation period and then read on a fluorescence plate reader and analyzed.
The 2×PTK2 (FAK)/Tyr 07 mixture was prepared in 50 mM HEPES pH 7.5, 0.01% BRIJ-35, 10 mM MgCl2, 1 mM EGTA. […] After the 1 hour kinase reaction incubation period, 5 μL of a 1:16 dilution of development reagent B was added.
SelectScreen Kinase Profiling Service uses XLfit from ID Business Solutions (IDBS). The dose response curve was curve fit to model number 205 (sigmoidal dose-response model).
As for `COc1cc(N2CCC(N3CCN(C)CC3)CC2)ccc1Nc1ncc2c(n1)N(C)c1scnc1C(=O)N2` [Compound 6, 6-((2-methoxy-4-(4-(4-methylpiperazin-1-yl)piperidin-1-yl)phenyl)amino)-4-methyl-4,9-dihydro-10H-pyrimido[5,4-b]thiazolo[5,4-e][1,4]diazepin-10-one], the “loss in potency relative to 3” value worked out at 8 fold.

Regarding `COc1cc(N2CCC(N3CCN(C)CC3)CC2)ccc1Nc1ncc2c(n1)N(C)c1sc(C(F)(F)F)nc1C(=O)N2C` [Compound 177, 6-((2-methoxy-4-(4-(4-methylpiperazin-1-yl)piperidin-1-yl)phenyl)amino)-4,9-dimethyl-2-(trifluoromethyl)-4,9-dihydro-10H-pyrimido[5,4-b]thiazolo[5,4-e][1,4]diazepin-10-one], the “lower potency relative to 5” value is listed as ~10 fold.

Staying with this test, now noted: enzymatic, Z′-LYTE; read-out: FAK IC50.
As for `Cc1nc2c(s1)N(C)c1nc(Nc3ccc(N4CCN(C)CC4)cc3)ncc1NC2=O` [Compound 1, 2,4-dimethyl-6-((4-(4-methylpiperazin-1-yl)phenyl)amino)-4,9-dihydro-10H-pyrimido[5,4-b]thiazolo[5,4-e][1,4]diazepin-10-one], the IC50 worked out at 0.228 µM. On the same count and under the same terms, the same measure for `Cc1nc2c(s1)N(C)c1nc(Nc3ccc(N4CCC(O)CC4)cc3)ncc1NC2=O` [Compound 2, 6-((4-(4-hydroxypiperidin-1-yl)phenyl)amino)-2,4-dimethyl-4,9-dihydro-10H-pyrimido[5,4-b]thiazolo[5,4-e][1,4]diazepin-10-one]: 0.58 µM; for `COc1cc(Nc2ncc3c(n2)N(C)c2sc(C)nc2C(=O)N3)ccc1N1CCN(C)CC1` [Compound 4, 6-((3-methoxy-4-(4-methylpiperazin-1-yl)phenyl)amino)-2,4-dimethyl-4,9-dihydro-10H-pyrimido[5,4-b]thiazolo[5,4-e][1,4]diazepin-10-one]: 0.0904 µM. The same measure, in the same setting: the value for `COc1cc(N2CCC(N3CCN(C)CC3)CC2)ccc1Nc1ncc2c(n1)N(C)c1scnc1C(=O)N2` [Compound 6, 6-((2-methoxy-4-(4-(4-methylpiperazin-1-yl)piperidin-1-yl)phenyl)amino)-4-methyl-4,9-dihydro-10H-pyrimido[5,4-b]thiazolo[5,4-e][1,4]diazepin-10-one] was 0.51 µM; that for `COc1cc(N2CCN(C)CC2)ccc1Nc1ncc2c(n1)N(C)c1sc(C)nc1C(=O)N2` [Compound 7, 6-((2-methoxy-4-(4-methylpiperazin-1-yl)phenyl)amino)-2,4-dimethyl-4,9-dihydro-10H-pyrimido[5,4-b]thiazolo[5,4-e][1,4]diazepin-10-one] was 0.0487 µM; that for `CCc1nc2c(s1)N(C)c1nc(Nc3ccc(N4CCC(N5CCN(C)CC5)CC4)cc3OC)ncc1NC2=O` [Compound 8, 2-ethyl-6-((2-methoxy-4-(4-(4-methylpiperazin-1-yl)piperidin-1-yl)phenyl)amino)-4-methyl-4,9-dihydro-10H-pyrimido[5,4-b]thiazolo[5,4-e][1,4]diazepin-10-one] was 0.0321 µM. Still for that read-out and setting: the value for `CCN1c2nc(Nc3ccc(N4CCC(N5CCN(C)CC5)CC4)cc3OC)ncc2NC(=O)c2nc(C)sc21` [Compound 9, 4-ethyl-6-((2-methoxy-4-(4-(4-methylpiperazin-1-yl)piperidin-1-yl)phenyl)amino)-2-methyl-4,9-dihydro-10H-pyrimido[5,4-b]thiazolo[5,4-e][1,4]diazepin-10-one] was 0.0451 µM; that for `CNC(=O)c1ccc(Nc2ncc3c(n2)N(C)c2sc(C)nc2C(=O)N3)cc1` [Compound 10, 4-((2,4-dimethyl-10-oxo-9,10-dihydro-4H-pyrimido[5,4-b]thiazolo[5,4-e][1,4]diazepin-6-yl)amino)-N-methylbenzamide] was 0.129 µM; that for `COc1cc(N2CCN(S(C)(=O)=O)CC2)ccc1Nc1ncc2c(n1)N(C)c1sc(C)nc1C(=O)N2` [Compound 11, 6-((2-methoxy-4-(4-(methylsulfonyl)piperazin-1-yl)phenyl)amino)-2,4-dimethyl-4,9-dihydro-10H-pyrimido[5,4-b]thiazolo[5,4-e][1,4]diazepin-10-one] was 0.0176 µM. In the case of `C=CC(=O)N1CCN(c2ccc(Nc3ncc4c(n3)N(C)c3sc(C)nc3C(=O)N4C)c(OC)c2)CC1` [Compound 13, 6-((4-(4-acryloylpiperazin-1-yl)-2-methoxyphenyl)amino)-2,4,9-trimethyl-4,9-dihydro-10H-pyrimido[5,4-b]thiazolo[5,4-e][1,4]diazepin-10-one], the IC50 came to 0.0536 µM. On the same count and under the same terms, the value for `Cc1nc2c(s1)N(C)c1nc(Nc3ccc(N4CCN(C)CC4)cc3OCCO)ncc1N(C)C2=O` [Compound 17, 6-((2-(2-hydroxyethoxy)-4-(4-methylpiperazin-1-yl)phenyl)amino)-2,4,9-trimethyl-4,9-dihydro-10H-pyrimido[5,4-b]thiazolo[5,4-e][1,4]diazepin-10-one] was 0.465 µM. The same measure, in the same setting: the value for `Cc1nc2c(s1)N(C)c1nc(Nc3ccc(N4CCN(C)CC4)cn3)ncc1N(C)C2=O` [Compound 24, 2,4,9-trimethyl-6-((5-(4-methylpiperazin-1-yl)pyridin-2-yl)amino)-4,9-dihydro-10H-pyrimido[5,4-b]thiazolo[5,4-e][1,4]diazepin-10-one] was 0.196 µM; that for `Cc1nc2c(s1)N(C)c1nc(Nc3cnn(C)c3)ncc1N(C)C2=O` [Compound 26, 2,4,9-trimethyl-6-((1-methyl-1H-pyrazol-4-yl)amino)-4,9-dihydro-10H-pyrimido[5,4-b]thiazolo[5,4-e][1,4]diazepin-10-one] was 0.666 µM. Still for that read-out and setting: the value for `COc1cc(N2CCC(N3CCN(C)CC3)CC2)ccc1Nc1ncc2c(n1)N(C)c1sc(C(F)(F)F)nc1C(=O)N2C` [Compound 177, 6-((2-methoxy-4-(4-(4-methylpiperazin-1-yl)piperidin-1-yl)phenyl)amino)-4,9-dimethyl-2-(trifluoromethyl)-4,9-dihydro-10H-pyrimido[5,4-b]thiazolo[5,4-e][1,4]diazepin-10-one] was 0.134 µM; that for `CN1CCN(c2ccc(Nc3ncc4c(n3)N(C)c3sc(-c5ccccc5)nc3C(=O)N4C)cc2)CC1` [Compound 184, 4,9-dimethyl-6-((4-(4-methylpiperazin-1-yl)phenyl)amino)-2-phenyl-4,9-dihydro-10H-pyrimido[5,4-b]thiazolo[5,4-e][1,4]diazepin-10-one] was > 10 µM; that for `COc1cc(N2CCC(N3CCN(C)CC3)CC2)ccc1Nc1ncc2c(n1)N(C)c1sc(-c3ccccc3)nc1C(=O)N2C` [Compound 186, 6-((2-methoxy-4-(4-(4-methylpiperazin-1-yl)piperidin-1-yl)phenyl)amino)-4,9-dimethyl-2-phenyl-4,9-dihydro-10H-pyrimido[5,4-b]thiazolo[5,4-e][1,4]diazepin-10-one] was > 10 µM. Regarding `CCc1nc2c(s1)N(C)c1nc(Nc3ccc(N4CCC(N5CCN(C)CC5)CC4)cc3OC)ncc1N(C)C2=O` [Compound 193, 2-ethyl-6-((2-methoxy-4-(4-(4-methylpiperazin-1-yl)piperidin-1-yl)phenyl)amino)-4,9-dimethyl-4,9-dihydro-10H-pyrimido[5,4-b]thiazolo[5,4-e][1,4]diazepin-10-one], the IC50 worked out at 0.0317 µM.

As for `COc1cc(Nc2ncc3c(n2)N(C)c2sc(C)nc2C(=O)N3)ccc1N1CCC(N2CCN(C)CC2)CC1` [Compound 194, 6-((3-methoxy-4-(4-(4-methylpiperazin-1-yl)piperidin-1-yl)phenyl)amino)-2,4-dimethyl-4,9-dihydro-10H-pyrimido[5,4-b]thiazolo[5,4-e][1,4]diazepin-10-one], the IC50 was 0.0557 µM.

Consider `COc1cc(N2CCN(C3CCN(C)CC3)CC2)ccc1Nc1ncc2c(n1)N(C)c1sc(C)nc1C(=O)N2C` [Compound 195, 6-((2-methoxy-4-(4-(1-methylpiperidin-4-yl)piperazin-1-yl)phenyl)amino)-2,4,9-trimethyl-4,9-dihydro-10H-pyrimido[5,4-b]thiazolo[5,4-e][1,4]diazepin-10-one], for which the IC50 stood at 0.0629 µM.

Staying with this test, now noted: phenyl substituent at thiazole 2-position.
With `CN1CCN(c2ccc(Nc3ncc4c(n3)N(C)c3sc(-c5ccccc5)nc3C(=O)N4C)cc2)CC1` [Compound 184, 4,9-dimethyl-6-((4-(4-methylpiperazin-1-yl)phenyl)amino)-2-phenyl-4,9-dihydro-10H-pyrimido[5,4-b]thiazolo[5,4-e][1,4]diazepin-10-one], the “FAK inhibitory activity (in words)” value is listed as “abrogated activity”.
